From patent publication US20260042764A1, “COMPOSITIONS AND METHODS FOR INHIBITION OF KRAS” (TheRas, Inc., priority 2022, published 2026)

Legend:
[1] = system: SW1900 cells (KRAS G12D); test: Cell-based pERK HTRF assay in SW1900 cells (Biological Example 5)
Experimental: (§1) Biological Example 5: Cell-based PERK HTRF assay in AsPC-1, SW1900, HPAC, Capan-2, RKN, H358, HCT116, KP-2, H1573, A549, MKN1, and HT1080 cells
(§2) The inhibition of ERK phosphorylation, as measured using the HTRF Advanced Phospho-ERK 1/2 (Thr202/Tyr204) Detection Assay kit (Perkin Elmer), was used to determine the effectiveness of test compounds in disrupting KRAS-driven protein/effector signaling in cells.
(§3) On day 1, cells were seeded into 96-well plates at 2.5×10^4 cells/well in 100 μL of complete growth media supplemented with 10% fetal bovine serum (FBS) and incubated at 37° C., in the presence of 5% CO2.
(§4) On day 2, cells were treated with compounds diluted in DMSO at 0.25% final DMSO concentration. Compounds were dosed in a 9-point concentration curve with three-fold dilution between concentrations. Cells were incubated in the presence of compound for two hours at 37° C. Following this treatment period, cells were harvested by aspirating the media, adding 40 μL of kit-supplied 1x lysis buffer per well, and shaking for 30 minutes at 250 rpm at room temperature.
(§5) Following cell lysis, samples were homogenized by pipetting up and down twenty times and 16 μL of cell lysate per well was transferred from the 96-well cell culture plate to two wells of a 384-well detection plate. A complete detection buffer was prepared by diluting D2 and Eu Cryptate antibodies 1:20 in kit-provided detection solution, 4 μL of complete detection buffer was then added to each well with lysate. Plates were incubated with gentle rocking for 24 hours at 4° C.
(§6) Following this incubation period, plates were centrifuged at 500×g for one minute and analyzed on a CLARIOstar plate reader. Data was imported into Microsoft Excel and the signal from the 665 nm channel was divided by the signal from the 620 nm channel. % pERK was calculated as: […]
(§7) Data was imported to the Prism software package (Graphpad) and EC50 values were calculated using the log (inhibitor) vs, response—variable slopc (Four parameters) model.

[2] = system: RKN cells (KRAS G12V); test: 3D Cell viability assay in RKN cells (Biological Example 6); assay type: cell-based; conditions: RKN (KRAS G12V) spheroids, 72 hours
Experimental: (§8) Biological Example 6: 3D Cell viability assay in AsPC-1, SW1900, HPAC, Capan-2, RKN, H358, HCT116, KP-2, H1573, A549, MKN1, and HT1080 cells
(§9) The inhibition of cellular viability as a result of test compound treatment in a spheroid assay was measured using the CellTiter-Glow 3D Cell Viability Assay (Promega).
(§10) On Day 1, 1000 cells per well were seeded in 150 μL of complete growth media supplemented with 10% fetal bovine serum (FBS) and incubated at 37° C., in the presence of 5% CO2 in 96-well ultra-low attachment microplates (Corning) for 48 hours undisturbed to allow spheroids to form.
(§11) Following spheroid formation, cells were treated with compounds diluted in DMSO at 0.25% final DMSO concentration. Compounds were dosed in a 9-point concentration curve with three-fold dilution between concentrations. Cells were incubated in the presence of compound for 72 hours at 37° C., in the presence of 5% CO2.
(§12) Following this incubation period, the kit-provided CTG reagent was allowed to equilibrate for 30 minutes at room temperature, 150 μL of equilibrated CTG reagent was added to each well, and the plate was sealed before shaking at 250 rpm for 10 minutes at room temperature to lyse the cells, 150 μL of lysate per well was transferred to a 96-well plate and luminescence was read on a CLARIOstar plate reader.
(§13) Data was imported into the Prism software package (Graphpad) and EC50 values were calculated using the log (inhibitor) vs, response—variable slope (Four parameters) model.

[3] = system: AsPC-1 cells (KRAS G12D); test: Cell-based pERK HTRF assay in AsPC-1 cells (Biological Example 5)
Experimental: as §1, §2, §3, §4, §5, §6, §7

[4] = system: Capan-2 cells (KRAS G12V); test: 3D Cell viability assay in Capan-2 cells (Biological Example 6); assay type: cell-based; conditions: Capan-2 (KRAS G12V) spheroids, 72 hours
Experimental: as §8, §9, §10, §11, §12, §13

[5] = system: SW1900 cells (KRAS G12D); test: 3D Cell viability assay in SW1900 cells (Biological Example 6); assay type: cell-based; conditions: SW1990 (text: SW1900, KRAS G12D) spheroids, 72 hours
Experimental: as §8, §9, §10, §11, §12, §13

[6] = system: Capan-2 cells (KRAS G12V); test: Cell-based pERK HTRF assay in Capan-2 cells (Biological Example 5)
Experimental: as §1, §2, §3, §4, §5, §6, §7

[7] = system: MKN1 cells (KRAS amplification); test: Cell-based pERK HTRF assay in MKN1 cells (Biological Example 5)
Experimental: as §1, §2, §3, §4, §5, §6, §7

[8] = system: RKN cells (KRAS G12V); test: Cell-based pERK HTRF assay in RKN cells (Biological Example 5)
Experimental: as §1, §2, §3, §4, §5, §6, §7

[9] = system: HPAC cells (KRAS G12D); test: 3D Cell viability assay in HPAC cells (Biological Example 6); assay type: cell-based; conditions: Homo sapiens, HPAC, 72 h, HPAC (KRAS G12D) spheroids
Experimental: as §8, §9, §10, §11, §12, §13

[10] = system: HCT116 cells (KRAS G13D); test: 3D Cell viability assay in HCT116 cells (Biological Example 6); assay type: cell-based; conditions: Homo sapiens, HCT-116; HCT116 (KRAS G13D) spheroids, 72 hours
Experimental: as §8, §9, §10, §11, §12, §13

[11] = system: HT1080 cells (NRAS); test: 3D Cell viability assay in HT1080 cells (Biological Example 6); assay type: cell-based; conditions: Homo sapiens, HT-1080; HT1080 (NRAS) spheroids, 72 hours
Experimental: as §8, §9, §10, §11, §12, §13

[12] = system: HT1080 cells (NRAS); test: Cell-based pERK HTRF assay in HT1080 cells (Biological Example 5); conditions: Homo sapiens, HT-1080
Experimental: as §1, §2, §3, §4, §5, §6, §7

[13] = Homo sapiens, SW1990, SW1990 cells (text: SW1900, KRAS G12D)
[14] = Homo sapiens, ASPC1, AsPC-1 (KRAS G12D) cells
[15] = Homo sapiens, Capan-2, Capan-2 (KRAS G12V) cells
[16] = Homo sapiens, MKN-1, MKN cells (MKN1, KRAS amplification)

SMILES	IC50 [1, 13]	IC50 [2]	IC50 [3, 14]	IC50 ([4]; Homo sapiens)	IC50 ([5]; Homo sapiens)	IC50 [6, 15]	IC50 [7, 16]	IC50 [8]	IC50 [9]	IC50 [10]	IC50 [11]	IC50 [12]	IC50 ([1]; SW1990 cells (text: SW1900, KRAS G12D))	IC50 ([3]; AsPC-1 (KRAS G12D) cells)	IC50 [4]	IC50 [5]	IC50 ([6]; Capan-2 (KRAS G12V) cells)	IC50 ([7]; MKN cells (MKN1, KRAS amplification))
CCN(c1nc(OC[C@@]23CCCN2C[C@H](F)C3)nc2c(F)c(-c3ccc(F)c4sc(N)c(C#N)c34)c(C(F)(F)F)cc12)[C@H]1CCN(C(=O)C2CC2)[C@@H]1C (atropisomer, axis not shown) [Compound 579]	≤ 100 nM	≤ 100 nM	≤ 100 nM	≤ 100 nM	≤ 100 nM	≤ 100 nM	≤ 100 nM	≤ 100 nM	100 to 1000 nM	–	–	–	–	–	–	–	–	–
CCN(c1nc(OC[C@@]23CCCN2C[C@H](F)C3)nc2c(F)c(-c3ccc(F)c4sc(N)c(C#N)c34)c(C(F)(F)F)cc12)[C@H]1CCN(C(=O)c2ncco2)C1 (atropisomer, axis not shown) [Compound 584]	≤ 100 nM	≤ 100 nM	≤ 100 nM	≤ 100 nM	≤ 100 nM	≤ 100 nM	≤ 100 nM	≤ 100 nM	≤ 100 nM	–	–	–	–	–	–	–	–	–
CCN(c1nc(OC[C@@]23CCCN2C[C@H](F)C3)nc2c(F)c(-c3ccc(F)c4sc(N)c(C#N)c34)c(C(F)(F)F)cc12)[C@H]1C[C@@H](C)N(C(=O)C2COC2)C1 (atropisomer, axis not shown) [Compound 586]	≤ 100 nM	≤ 100 nM	≤ 100 nM	≤ 100 nM	≤ 100 nM	≤ 100 nM	≤ 100 nM	≤ 100 nM	≤ 100 nM	–	–	–	–	–	–	–	–	–
CCN(c1nc(OC[C@@]23CCCN2C[C@H](F)C3)nc2c(F)c(-c3ccc(F)c4sc(N)c(C#N)c34)c(C(F)(F)F)cc12)[C@H]1CCN(C(=O)N2CC(F)C2)C1 (atropisomer, axis not shown) [Compound 606]	≤ 100 nM	≤ 100 nM	≤ 100 nM	≤ 100 nM	≤ 100 nM	≤ 100 nM	≤ 100 nM	≤ 100 nM	100 to 1000 nM	–	–	–	–	–	–	–	–	–
C[C@H]1Cn2nc(C(=O)N(C)C)cc2CN1c1nc(OC[C@@]23CCCN2C[C@H](F)C3)nc2c(F)c(-c3ccc(F)c4sc(N)c(C#N)c34)c(C(F)(F)F)cc12 (atropisomer, axis not shown) [Compound 610]	≤ 100 nM	≤ 100 nM	≤ 100 nM	≤ 100 nM	≤ 100 nM	≤ 100 nM	≤ 100 nM	≤ 100 nM	100 to 1000 nM	–	–	–	–	–	–	–	–	–
C/C=C/C(=O)N1CC[C@H](N(CC)c2nc(OC[C@@]34CCCN3C[C@H](F)C4)nc3c(F)c(-c4ccc(F)c5sc(N)c(C#N)c45)c(C(F)(F)F)cc23)C1 (atropisomer, axis not shown) [Compound 674]	≤ 100 nM	≤ 100 nM	≤ 100 nM	≤ 100 nM	≤ 100 nM	≤ 100 nM	≤ 100 nM	≤ 100 nM	≤ 100 nM	–	–	–	–	–	–	–	–	–
CCN(c1nc(OC[C@@]23CCCN2C[C@H](F)C3)nc2c(F)c(-c3ccc(F)c4sc(N)c(C#N)c34)c(C(F)(F)F)cc12)[C@H]1C[C@H](COC)N(C(=O)C2CC2)C1 (atropisomer, axis not shown) [Compound 696]	≤ 100 nM	≤ 100 nM	≤ 100 nM	≤ 100 nM	≤ 100 nM	≤ 100 nM	≤ 100 nM	≤ 100 nM	–	100 to 1000 nM	–	–	–	–	–	–	–	–
CCN(c1nc(OC[C@@]23CCCN2C[C@H](F)C3)nc2c(F)c(-c3ccc(F)c4sc(N)c(C#N)c34)c(C(F)(F)F)cc12)[C@H]1C[C@H](C)N(C(=O)OC)C1 (atropisomer, axis not shown) [Compound 704]	≤ 100 nM	≤ 100 nM	≤ 100 nM	≤ 100 nM	≤ 100 nM	≤ 100 nM	≤ 100 nM	≤ 100 nM	–	–	–	–	–	–	–	–	–	–
CCN(c1nc(OC[C@@]23CCCN2C[C@H](F)C3)nc2c(F)c(-c3ccc(F)c4sc(N)c(C#N)c34)c(C(F)(F)F)cc12)[C@H]1C[C@H](C)N(C(=O)N2CC(OC)C2)C1 (atropisomer, axis not shown) [Compound 764]	≤ 100 nM	≤ 100 nM	≤ 100 nM	≤ 100 nM	≤ 100 nM	≤ 100 nM	≤ 100 nM	≤ 100 nM	> 1000 nM	–	–	–	–	–	–	–	–	–
CCN(c1nc(OC[C@@]23CCCN2C[C@H](F)C3)nc2c(F)c(-c3ccc(F)c4sc(N)c(C#N)c34)c(C(F)(F)F)cc12)[C@H]1C[C@H](C)N(C(C)=O)C1 [Compound 463]	≤ 100 nM	–	100 to 1000 nM	≤ 100 nM	≤ 100 nM	≤ 100 nM	≤ 100 nM	–	> 1000 nM	–	> 1000 nM	> 1000 nM	–	–	–	–	–	–
CCN(c1nc(OCC23CCCN2CC(F)C3)nc2c(F)c(-c3ccc(F)c4sc(N)c(C#N)c34)c(C(F)(F)F)cc12)C1CC(C)N(C(=O)N2CC(F)C2)C1 (stereo not shown) [Compound 759]	–	≤ 100 nM	–	–	–	–	–	≤ 100 nM	–	–	–	–	≤ 100 nM	≤ 100 nM	≤ 100 nM	≤ 100 nM	≤ 100 nM	≤ 100 nM
